According to ChEMBL document CHEMBL1201862, “PubChem BioAssay data set” (2004):
Activity calls are given as the source filed them.

Key:
[1] = biological target: Voltage-gated inwardly rectifying potassium channel KCNH2 (Homo sapiens, UniProt Q12809); test: hERG protection from proarrhythmic block, potency, dose response, cell-based, thallium flux (AID 2121); assay type: ADME
[2] = biological target: T1, Tyrosine-protein phosphatase non-receptor type 7 (Homo sapiens, UniProt P35236); test: inhibitors of human HePTP phosphatase, […], biochemical, absorbance, leukemia target (AID 521); assay type: functional
T1 sequence (P35236 whole entry): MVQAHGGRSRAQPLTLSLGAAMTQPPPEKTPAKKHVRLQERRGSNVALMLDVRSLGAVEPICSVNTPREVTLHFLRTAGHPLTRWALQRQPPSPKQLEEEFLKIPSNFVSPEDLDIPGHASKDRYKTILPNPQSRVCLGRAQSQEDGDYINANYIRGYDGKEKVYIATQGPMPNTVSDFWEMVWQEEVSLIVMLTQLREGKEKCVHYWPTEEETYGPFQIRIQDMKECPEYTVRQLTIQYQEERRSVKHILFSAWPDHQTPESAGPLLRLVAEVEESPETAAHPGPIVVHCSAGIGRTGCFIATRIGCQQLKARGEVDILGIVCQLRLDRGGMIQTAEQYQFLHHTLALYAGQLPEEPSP

[3] = biological target: T2, Dual specificity protein phosphatase 6 (Rattus norvegicus, UniProt Q64346); test: MKP-3 phosphatase inhibitors, primary screen, biochemical, rat enzyme, in vitro (AID 425)
T2 sequence (Q64346 whole entry): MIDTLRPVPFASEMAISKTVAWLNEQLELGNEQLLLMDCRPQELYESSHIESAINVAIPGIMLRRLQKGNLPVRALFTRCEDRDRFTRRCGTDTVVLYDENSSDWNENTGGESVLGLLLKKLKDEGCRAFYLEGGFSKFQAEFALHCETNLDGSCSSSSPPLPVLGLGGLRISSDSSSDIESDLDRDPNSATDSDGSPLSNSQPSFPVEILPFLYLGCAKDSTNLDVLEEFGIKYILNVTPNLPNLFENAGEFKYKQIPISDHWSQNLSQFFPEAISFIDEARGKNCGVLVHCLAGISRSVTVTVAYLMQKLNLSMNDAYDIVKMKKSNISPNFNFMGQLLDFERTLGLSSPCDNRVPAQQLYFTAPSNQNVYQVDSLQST

Major prion protein = Major prion protein (Homo sapiens, UniProt P04156); assay type: functional, cell-based
[4] = biological target: T3, Sphingosine 1-phosphate receptor 2 (Homo sapiens, UniProt O95136); test: Dose Response Cell Based Assay for Antagonists of the S1P2 Receptor. [Related pubchem assays: 856, 736 ]; assay type: functional
[5] = inhibitors of intracellular T. cruzi replication, confirmation, NIH3T3 host cells, beta-gal luminescence (AID 2044); assay type: functional, cell-based;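 also: intracellular parasites grown in NIH/3T3 mouse fibroblasts as host cells; luminescent beta-galactosidase reporter signal from transgenic T. cruzi replicating inside host cells; inhibitors lower the luminescence signal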
[6] = cytotoxicity toward NIH3T3 fibroblasts, dose response, counter-screen, cell-based, ATP luminescence, mouse fibroblasts (AID 2010); assay type: functional;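 also: cells exposed to compound for about 90 hours before reading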
[7] = cytotoxicity in HEK-293T cells, dose response, cytotoxicity control for TCR NF-kB inhibitor project, luminescence, T-cell screen hits (AID 489026); assay type: functional, cell-based;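 also: cells exposed to compound about 14 hours before the viability readout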
INS1 = test: beta cell apoptosis inhibitors, cytokine rescue, dose response, luminescence, retest (AID 449756); assay type: functional, cell-based; conditions: Rattus norvegicus;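 also: cell death triggered by IL-1 beta plus TNF-alpha plus IFN-gamma mixture; protective hits raise ATP signal compared with cytokine alone wells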
[8] = Shn3 3'UTR reporter inhibitors, dose response, cell-based, Clone20 osteoblasts, firefly luciferase, cherry-picked (AID 624132); assay type: functional;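 also: firefly luciferase luminescence from reporter carrying the Shn3 3'UTR in osteoblasts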
[9] = HepG2 cell cytotoxicity, dose response, cytotoxicity control for Shn3 inhibitor project, CellTiter-Glo, cherry-picked (AID 624134); assay type: functional, cell-based
[10] = control 3'UTR Renilla luciferase suppression, dose response, counter-screen for Shn3 inhibitor project, cell-based, Clone20-Shn3RL, cherry-picked (AID 624133); assay type: functional
Vero [11] = test: West Nile virus antiviral activity, cell-based, CPE readout (AID 1621); assay type: functional; conditions: Chlorocebus sabaeus
[12] = biological target: T4, DNA repair and recombination protein RAD54-like (Homo sapiens, UniProt Q92698); test: inhibitors of human RAD54 branch migration, confirmation, biochemical, fluorescence, cherry-picked samples, dose series (AID 651657); assay type: functional
T4 sequence (Q92698 whole entry): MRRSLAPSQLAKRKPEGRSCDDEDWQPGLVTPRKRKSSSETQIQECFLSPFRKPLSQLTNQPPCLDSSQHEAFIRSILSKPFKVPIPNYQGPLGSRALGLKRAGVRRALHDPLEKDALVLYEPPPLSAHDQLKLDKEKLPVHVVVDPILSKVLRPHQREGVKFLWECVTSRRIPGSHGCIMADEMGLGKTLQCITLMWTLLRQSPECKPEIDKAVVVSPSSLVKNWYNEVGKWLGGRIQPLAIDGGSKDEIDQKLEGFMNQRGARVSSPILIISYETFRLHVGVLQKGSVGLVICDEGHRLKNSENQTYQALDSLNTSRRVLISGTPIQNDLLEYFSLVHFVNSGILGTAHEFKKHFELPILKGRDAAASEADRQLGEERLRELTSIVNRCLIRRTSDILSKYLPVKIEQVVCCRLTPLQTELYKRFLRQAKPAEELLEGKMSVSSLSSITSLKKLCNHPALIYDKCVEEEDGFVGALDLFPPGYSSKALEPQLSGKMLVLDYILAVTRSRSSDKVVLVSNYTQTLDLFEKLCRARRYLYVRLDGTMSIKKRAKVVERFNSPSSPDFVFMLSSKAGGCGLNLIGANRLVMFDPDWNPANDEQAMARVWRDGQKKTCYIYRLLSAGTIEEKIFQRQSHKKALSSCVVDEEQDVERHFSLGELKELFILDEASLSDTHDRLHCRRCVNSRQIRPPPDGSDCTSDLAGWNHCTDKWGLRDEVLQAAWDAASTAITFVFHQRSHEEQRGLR

[13] = biological target: T5, DNA repair protein RAD52 homolog (Homo sapiens, UniProt P43351); assay type: functional, biochemical
T5 sequence (P43351 whole entry): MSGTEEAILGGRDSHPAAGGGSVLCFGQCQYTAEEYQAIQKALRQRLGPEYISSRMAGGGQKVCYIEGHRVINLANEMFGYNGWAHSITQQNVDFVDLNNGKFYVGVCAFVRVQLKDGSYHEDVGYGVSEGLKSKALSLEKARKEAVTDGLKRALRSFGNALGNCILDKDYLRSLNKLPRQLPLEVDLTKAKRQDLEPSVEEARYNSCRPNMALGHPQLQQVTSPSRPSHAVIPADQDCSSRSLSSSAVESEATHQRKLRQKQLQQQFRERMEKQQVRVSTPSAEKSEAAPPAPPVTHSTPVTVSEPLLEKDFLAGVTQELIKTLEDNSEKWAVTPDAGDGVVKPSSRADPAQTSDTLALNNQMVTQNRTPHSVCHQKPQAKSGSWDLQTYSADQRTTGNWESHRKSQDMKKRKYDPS

[14] = biological target: T3, Sphingosine 1-phosphate receptor 2; test: Dose Response Cell Based Assay for Agonists of the S1P2 Receptor. [Related pubchem assays: 729, 736, 843 ]; assay type: functional
[15] = biological target: T6, Replicative DNA helicase DnaB (Mycobacterium tuberculosis, UniProt P9WMR3); test: DnaB intein splicing inhibitors, dose response, biochemical, cell-free fluorescence (AID 449749); assay type: functional
T6 sequence (P9WMR3 whole entry): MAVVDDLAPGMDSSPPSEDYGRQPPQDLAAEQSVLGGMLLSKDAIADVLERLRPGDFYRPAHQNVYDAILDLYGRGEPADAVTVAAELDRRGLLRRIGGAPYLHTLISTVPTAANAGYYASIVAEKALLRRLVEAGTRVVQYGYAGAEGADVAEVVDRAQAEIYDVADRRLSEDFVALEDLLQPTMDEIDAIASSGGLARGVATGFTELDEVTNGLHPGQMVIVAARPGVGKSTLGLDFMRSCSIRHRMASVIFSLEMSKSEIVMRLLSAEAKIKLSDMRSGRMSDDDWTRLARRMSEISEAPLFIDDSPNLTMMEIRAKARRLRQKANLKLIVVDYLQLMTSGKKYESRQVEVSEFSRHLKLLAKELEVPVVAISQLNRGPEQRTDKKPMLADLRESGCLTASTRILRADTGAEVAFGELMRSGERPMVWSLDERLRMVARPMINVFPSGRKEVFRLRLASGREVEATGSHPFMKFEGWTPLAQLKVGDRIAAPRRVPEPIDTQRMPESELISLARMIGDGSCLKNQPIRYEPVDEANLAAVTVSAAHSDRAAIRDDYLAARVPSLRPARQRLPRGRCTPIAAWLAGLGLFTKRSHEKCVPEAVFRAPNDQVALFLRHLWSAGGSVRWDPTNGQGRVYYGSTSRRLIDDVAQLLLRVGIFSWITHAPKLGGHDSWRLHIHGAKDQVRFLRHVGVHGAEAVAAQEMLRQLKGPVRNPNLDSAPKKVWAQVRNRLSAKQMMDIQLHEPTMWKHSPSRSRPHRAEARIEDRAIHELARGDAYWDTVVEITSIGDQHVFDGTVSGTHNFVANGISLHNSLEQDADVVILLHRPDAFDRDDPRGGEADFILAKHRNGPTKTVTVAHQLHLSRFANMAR

Protein RecA = biological target: T7, Protein RecA (Mycobacterium tuberculosis, UniProt P9WHJ3); test: Fluorescence Cell-Free Homogeneous Dose Retest to Identify Inhibitors of RecA-Intein Splicing Activity. [Related pubchem assays (depositor defined):AID2097, AID2223, AID489010, AID492950]; assay type: functional
T7 sequence (P9WHJ3 whole entry): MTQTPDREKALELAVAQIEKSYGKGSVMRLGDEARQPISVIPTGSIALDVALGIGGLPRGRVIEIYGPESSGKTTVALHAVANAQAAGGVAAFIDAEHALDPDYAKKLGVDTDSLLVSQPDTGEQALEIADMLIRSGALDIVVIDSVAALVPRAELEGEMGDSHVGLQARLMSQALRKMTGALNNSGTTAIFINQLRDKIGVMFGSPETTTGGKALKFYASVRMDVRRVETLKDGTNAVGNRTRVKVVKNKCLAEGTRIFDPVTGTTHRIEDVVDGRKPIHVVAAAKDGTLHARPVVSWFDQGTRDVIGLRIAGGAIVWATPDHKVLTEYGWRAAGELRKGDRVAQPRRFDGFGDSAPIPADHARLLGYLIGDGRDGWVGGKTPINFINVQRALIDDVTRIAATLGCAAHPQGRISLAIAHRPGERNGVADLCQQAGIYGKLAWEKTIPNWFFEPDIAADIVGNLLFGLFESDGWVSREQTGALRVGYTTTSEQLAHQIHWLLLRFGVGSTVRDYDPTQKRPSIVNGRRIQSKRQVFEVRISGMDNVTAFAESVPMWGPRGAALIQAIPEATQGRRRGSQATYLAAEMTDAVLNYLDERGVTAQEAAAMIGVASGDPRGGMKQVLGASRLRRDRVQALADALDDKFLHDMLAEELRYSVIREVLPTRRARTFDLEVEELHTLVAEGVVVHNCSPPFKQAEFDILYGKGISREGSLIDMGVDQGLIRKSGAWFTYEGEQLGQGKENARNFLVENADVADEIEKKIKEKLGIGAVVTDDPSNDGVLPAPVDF

Vero [16] = test: cells; assay type: functional; conditions: Chlorocebus sabaeus
[17] = biological target: T1, Tyrosine-protein phosphatase non-receptor type 7; assay type: functional
Bcl-2-like protein 10 = biological target: T8, Bcl-2-like protein 10 (Homo sapiens, UniProt Q9HD36); test: displacers of TR3 peptide from Bcl-B, primary screen, selectivity assay for Bfl-1 inhibitor project, biochemical, fluorescence polarization, FITC-TR3 peptide (AID 748);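 also: fluorescence polarization from a fluorescein-labelled TR3 peptide binding purified Bcl-B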
T8 sequence (Q9HD36 whole entry): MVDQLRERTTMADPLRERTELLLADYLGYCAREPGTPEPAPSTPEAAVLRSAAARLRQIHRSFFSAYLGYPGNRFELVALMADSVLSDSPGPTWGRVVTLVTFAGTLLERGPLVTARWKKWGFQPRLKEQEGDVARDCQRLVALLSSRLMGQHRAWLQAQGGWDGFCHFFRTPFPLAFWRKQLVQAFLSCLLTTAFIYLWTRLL

[18] = biological target: Glyceraldehyde-3-phosphate dehydrogenase (Homo sapiens, UniProt P04406)
[19] = biological target: T2, Dual specificity protein phosphatase 6
Cytochrome P450 2C19 = Cytochrome P450 2C19 (Homo sapiens, UniProt P33261); test: Cytochrome panel assay with activity outcomes. Panel member name: p450-cyp2c19 Compounds with AC50 equal or less than 10 uM are considered active; assay type: functional; conditions: read-out: AC50
[20] = biological target: T2, Dual specificity protein phosphatase 6; assay type: functional

T3 sequence (O95136 whole entry): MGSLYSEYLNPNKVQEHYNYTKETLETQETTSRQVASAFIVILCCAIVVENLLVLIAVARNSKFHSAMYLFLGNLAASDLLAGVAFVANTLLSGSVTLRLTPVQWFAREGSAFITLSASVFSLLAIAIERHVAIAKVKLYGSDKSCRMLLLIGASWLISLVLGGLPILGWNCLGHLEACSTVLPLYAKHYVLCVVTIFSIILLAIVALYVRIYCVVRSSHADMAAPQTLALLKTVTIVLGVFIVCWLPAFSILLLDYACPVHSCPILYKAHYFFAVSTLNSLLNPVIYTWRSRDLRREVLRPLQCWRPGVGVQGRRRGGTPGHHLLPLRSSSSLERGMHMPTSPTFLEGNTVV
Chain of Glyceraldehyde-3-phosphate dehydrogenase (P04406 whole entry): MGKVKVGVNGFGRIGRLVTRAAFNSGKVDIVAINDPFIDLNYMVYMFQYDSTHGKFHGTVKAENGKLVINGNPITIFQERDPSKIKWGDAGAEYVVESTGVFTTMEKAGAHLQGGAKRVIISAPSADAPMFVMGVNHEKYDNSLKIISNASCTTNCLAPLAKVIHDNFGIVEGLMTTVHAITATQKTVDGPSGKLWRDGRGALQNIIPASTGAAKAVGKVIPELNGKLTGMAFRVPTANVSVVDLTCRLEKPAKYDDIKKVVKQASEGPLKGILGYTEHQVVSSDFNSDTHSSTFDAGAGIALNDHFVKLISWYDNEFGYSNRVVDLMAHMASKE
Chain of Voltage-gated inwardly rectifying potassium channel KCNH2 (Q12809 whole entry): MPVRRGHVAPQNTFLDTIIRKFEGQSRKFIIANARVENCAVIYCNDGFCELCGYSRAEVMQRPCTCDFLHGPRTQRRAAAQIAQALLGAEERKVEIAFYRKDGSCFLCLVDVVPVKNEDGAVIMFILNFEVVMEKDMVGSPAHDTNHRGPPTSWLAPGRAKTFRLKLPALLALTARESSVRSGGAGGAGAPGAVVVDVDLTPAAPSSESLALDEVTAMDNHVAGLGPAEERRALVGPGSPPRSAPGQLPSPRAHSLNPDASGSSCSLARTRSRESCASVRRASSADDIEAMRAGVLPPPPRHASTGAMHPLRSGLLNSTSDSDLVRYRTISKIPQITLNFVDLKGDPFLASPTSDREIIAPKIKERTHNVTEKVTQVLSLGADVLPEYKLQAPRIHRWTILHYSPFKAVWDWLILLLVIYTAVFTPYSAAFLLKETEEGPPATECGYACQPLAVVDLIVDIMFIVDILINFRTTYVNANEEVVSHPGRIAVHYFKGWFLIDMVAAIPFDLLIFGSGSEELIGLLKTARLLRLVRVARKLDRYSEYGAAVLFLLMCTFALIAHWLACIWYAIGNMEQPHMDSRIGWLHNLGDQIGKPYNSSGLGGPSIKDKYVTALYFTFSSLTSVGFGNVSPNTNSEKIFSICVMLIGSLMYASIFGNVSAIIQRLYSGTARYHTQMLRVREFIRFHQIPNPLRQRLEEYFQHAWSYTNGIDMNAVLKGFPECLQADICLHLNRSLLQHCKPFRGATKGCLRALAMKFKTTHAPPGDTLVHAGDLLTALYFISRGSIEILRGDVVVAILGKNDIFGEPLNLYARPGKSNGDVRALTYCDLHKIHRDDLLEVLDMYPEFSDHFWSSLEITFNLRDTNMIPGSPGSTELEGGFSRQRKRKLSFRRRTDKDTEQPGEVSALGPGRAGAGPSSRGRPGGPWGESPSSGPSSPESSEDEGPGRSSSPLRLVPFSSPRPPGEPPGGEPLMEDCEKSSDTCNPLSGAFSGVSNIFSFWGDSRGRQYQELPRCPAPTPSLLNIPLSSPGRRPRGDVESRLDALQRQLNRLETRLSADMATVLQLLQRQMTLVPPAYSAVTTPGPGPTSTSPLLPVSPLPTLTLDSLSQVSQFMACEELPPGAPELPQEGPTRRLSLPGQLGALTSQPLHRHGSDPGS
Chain of Cytochrome P450 2C19 (P33261 whole entry): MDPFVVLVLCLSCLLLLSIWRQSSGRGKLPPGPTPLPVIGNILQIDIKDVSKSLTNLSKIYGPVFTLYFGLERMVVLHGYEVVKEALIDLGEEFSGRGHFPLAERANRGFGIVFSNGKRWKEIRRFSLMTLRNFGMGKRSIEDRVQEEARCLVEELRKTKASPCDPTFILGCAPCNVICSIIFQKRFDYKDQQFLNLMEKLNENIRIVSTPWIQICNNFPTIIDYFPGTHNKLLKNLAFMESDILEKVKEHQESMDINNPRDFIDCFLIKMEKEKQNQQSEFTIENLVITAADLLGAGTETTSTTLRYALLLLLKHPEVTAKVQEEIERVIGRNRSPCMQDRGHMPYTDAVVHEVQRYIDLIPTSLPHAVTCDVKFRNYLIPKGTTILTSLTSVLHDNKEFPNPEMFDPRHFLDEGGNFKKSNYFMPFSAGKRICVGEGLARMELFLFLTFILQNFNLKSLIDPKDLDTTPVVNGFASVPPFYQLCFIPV

## COc1ccc(-c2csc(NC(=S)NC(=O)c3cccs3)n2)cc1Br
[1]
  EC50: 1.41 µM (active)

## NC(=O)CSc1nnc2n(-c3ccccc3)c(=O)c3c4c(sc3n12)CCCCC4
[2]
  IC50: 2.54 µM (active)
[3]
  IC50: > 10 µM (not active)
Major prion protein
  IC50: 4.66 µM (active)
cells
  IC50: 130 µM (inactive)

## Nc1nc(Cl)cc(N2CCC(c3cc(-c4ccc(Cl)cc4)[nH]n3)CC2)n1
[4]
  IC50: 7.01 µM (active)
[5]
  EC50: 2.13 µM (active)
[6]
  EC50: 7.5 µM (active)
[7]
  IC50: 64.3 µM (inactive)
INS1
  AC50: 4.41 µM (active)
[8]
  AC50: 2.43 µM (active)
[9]
  AC50: 19.5 µM (active)
[10]
  AC50: 11.1 µM (active)

## CCCN(CCC)CCCN=C(S)Nc1ccc2nc(N3CCCC3)cc(C)c2c1
[5]
  EC50: 1.96 µM (active)
[6]
  EC50: 10.1 µM (active)
Vero [11]
  IC50: 25.4 µM (active)
[12]
  AC50: 19.4 µM (active)
[13]
  AC50: 9.06 µM (active)

## Nc1c(C(=O)NCCCc2ccccc2)c2nc3ccccc3nc2n1Cc1cccs1
[5]
  EC50: 2.17 µM (active)
[6]
  EC50: > 60 µM (not active)
[14]
  EC50: 2.2 µM (active)
[15]
  AC50: 29.3 µM (active)
Protein RecA
  EC50: 3.3 µM (active)
Vero [16]
  CC50: > 25 µM (active)

## COC(=O)c1sc2cc(C(F)(F)F)cnc2c1-c1ccccc1
[4]
  IC50: > 30 µM (not active)

## Cc1ccc(C)n1C(Cc1ccccc1)C(=O)O (configuration not stated)
[17]
  IC50: 28 µM (active)
Bcl-2-like protein 10
  IC50: < 0.195 µM (inactive)
[18]
  IC50: > 100 µM (not active)
[19]
  IC50: > 100 µM (inactive)
[3]
  IC50: > 10 µM (not active)
Cytochrome P450 2C19
  AC50: 22.4 µM (inconclusive)
[20]
  IC50: > 100 µM (inactive)
